{"source": "the supplement of paper PMC12463676", "about": "“Small-molecule dissolution of stress granules by redox modulation benefits ALS models” (Nature Chemical Biology, 2025);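 further: each temperature applied for 3 min, abundance score taken as mean log2 fold change at the two lowest temperatures, z-score obtained by mean subtraction and division by SD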", "key": {"lipoamide": {"compound": "NC(=O)CCCCC1CCSS1 [lipoamide]", "assay": "thermal stability z-score vs DMSO; higher = more thermally stabilized by treatment", "settings": "HeLa, lipoamide concentration 100 µM", "protocol": "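Cellular thermal proteome profiling in HeLa cells. Cells were treated with 100 µM lipoamide for 1 h, with or without 1 mM arsenate for a further 1 h, then heated to ten temperatures (37-66.3 °C), and soluble protein was quantified by TMT mass spectrometry relative to 0.1% DMSO controls. The thermal stability score (sum of log2 fold changes minus the abundance score) was transformed to a z-score; mean of n = 3 experiments.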"}, "potassium arsenate": {"compound": "O=[As]([O-])(O)O.[K+] [potassium arsenate]", "assay": "thermal stability z-score vs DMSO; higher = more thermally stabilized by treatment", "settings": "HeLa; arsenate concentration 1 mM", "protocol": "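Cellular thermal proteome profiling in HeLa cells treated with 1 mM arsenate for 1 h (DMSO pretreatment), heated to ten temperatures (37-66.3 °C). Soluble protein was quantified by TMT mass spectrometry relative to DMSO controls; the thermal stability score was transformed to a z-score; mean of n = 3 experiments.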"}, "[1]": {"settings": "arsenate co-treatment: 1 mM arsenate 1 h"}}, "data": [{"target": "PDCD4 (UniProt Q53EL6)", "values": [{"measurement": "thermal stability z-score", "setting": "lipoamide; [1]", "result": -0.493}, {"measurement": "thermal stability z-score", "setting": "lipoamide; arsenate co-treatment: none", "result": -0.0889}, {"measurement": "thermal stability z-score", "setting": "potassium arsenate", "result": -0.0393}]}, {"target": "METTL15 (UniProt A6NJ78)", "values": [{"measurement": "thermal stability z-score", "setting": "lipoamide; [1]", "result": 0.0439}, {"measurement": "thermal stability z-score", "setting": "lipoamide; arsenate co-treatment: none", "result": -0.103}, {"measurement": "thermal stability z-score", "setting": "potassium arsenate", "result": 0.348}]}, {"target": "PEX6 (UniProt Q13608)", "values": [{"measurement": "thermal stability z-score", "setting": "lipoamide; [1]", "result": 0.132}, {"measurement": "thermal stability z-score", "setting": "lipoamide; arsenate co-treatment: none", "result": 0.339}, {"measurement": "thermal stability z-score", "setting": "potassium arsenate", "result": 0.938}]}, {"target": "PLA2G15 (UniProt Q8NCC3)", "values": [{"measurement": "thermal stability z-score", "setting": "lipoamide; [1]", "result": -0.718}, {"measurement": "thermal stability z-score", "setting": "lipoamide; arsenate co-treatment: none", "result": -0.487}, {"measurement": "thermal stability z-score", "setting": "potassium arsenate", "result": 0.38}]}, {"target": "RNASEH2C (UniProt Q8TDP1)", "values": [{"measurement": "thermal stability z-score", "setting": "lipoamide; [1]", "result": -0.258}, {"measurement": "thermal stability z-score", "setting": "lipoamide; arsenate co-treatment: none", "result": -0.493}, {"measurement": "thermal stability z-score", "setting": "potassium arsenate", "result": -0.406}]}, {"target": "FAM122B (UniProt Q7Z309)", "values": [{"measurement": "thermal stability z-score", "setting": "lipoamide; [1]", "result": -0.0455}, {"measurement": "thermal stability z-score", "setting": "lipoamide; arsenate co-treatment: none", "result": -0.144}, {"measurement": "thermal stability z-score", "setting": "potassium arsenate", "result": -0.217}]}, {"target": "WBSCR16 (UniProt Q96I51)", "values": [{"measurement": "thermal stability z-score", "setting": "lipoamide; [1]", "result": 1.56}, {"measurement": "thermal stability z-score", "setting": "lipoamide; arsenate co-treatment: none", "result": 0.878}, {"measurement": "thermal stability z-score", "setting": "potassium arsenate", "result": 0.683}]}, {"target": "GNL2 (UniProt Q13823)", "values": [{"measurement": "thermal stability z-score", "setting": "lipoamide; [1]", "result": -0.195}, {"measurement": "thermal stability z-score", "setting": "lipoamide; arsenate co-treatment: none", "result": -0.0312}, {"measurement": "thermal stability z-score", "setting": "potassium arsenate", "result": -1.8}]}, {"target": "DPH2 (UniProt Q9BQC3)", "sequence (Q9BQC3 whole entry)": "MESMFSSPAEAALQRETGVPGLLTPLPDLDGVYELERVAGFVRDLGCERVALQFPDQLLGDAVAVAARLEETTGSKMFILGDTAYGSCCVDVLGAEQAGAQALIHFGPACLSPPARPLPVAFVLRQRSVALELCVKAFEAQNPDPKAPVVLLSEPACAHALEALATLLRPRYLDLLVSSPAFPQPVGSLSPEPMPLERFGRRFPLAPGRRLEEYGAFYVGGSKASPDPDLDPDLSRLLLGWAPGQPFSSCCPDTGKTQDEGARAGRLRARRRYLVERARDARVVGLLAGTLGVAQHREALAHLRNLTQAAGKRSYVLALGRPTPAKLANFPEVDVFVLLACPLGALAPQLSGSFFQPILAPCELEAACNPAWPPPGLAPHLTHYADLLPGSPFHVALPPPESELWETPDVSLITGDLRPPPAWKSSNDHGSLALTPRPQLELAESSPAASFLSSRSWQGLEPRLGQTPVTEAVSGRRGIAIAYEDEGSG", "values": [{"measurement": "thermal stability z-score", "setting": "lipoamide; [1]", "result": -0.0475}, {"measurement": "thermal stability z-score", "setting": "lipoamide; arsenate co-treatment: none", "result": -0.355}, {"measurement": "thermal stability z-score", "setting": "potassium arsenate", "result": -1.17}]}, {"target": "WDSUB1 (UniProt Q8N9V3)", "sequence (Q8N9V3 whole entry)": "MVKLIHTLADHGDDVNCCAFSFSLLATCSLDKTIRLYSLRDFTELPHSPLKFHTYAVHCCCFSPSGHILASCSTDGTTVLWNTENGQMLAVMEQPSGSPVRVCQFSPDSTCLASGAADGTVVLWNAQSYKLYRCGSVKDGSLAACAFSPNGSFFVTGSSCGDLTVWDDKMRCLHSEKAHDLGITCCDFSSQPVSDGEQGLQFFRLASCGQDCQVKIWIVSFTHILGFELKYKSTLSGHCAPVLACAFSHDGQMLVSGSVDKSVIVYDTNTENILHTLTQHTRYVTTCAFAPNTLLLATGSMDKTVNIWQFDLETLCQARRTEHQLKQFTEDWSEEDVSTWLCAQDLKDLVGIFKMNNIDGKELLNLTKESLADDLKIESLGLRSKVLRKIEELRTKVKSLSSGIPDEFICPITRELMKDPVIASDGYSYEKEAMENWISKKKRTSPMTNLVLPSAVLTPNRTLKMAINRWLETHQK", "values": [{"measurement": "thermal stability z-score", "setting": "lipoamide; [1]", "result": 0.698}, {"measurement": "thermal stability z-score", "setting": "lipoamide; arsenate co-treatment: none", "result": 0.878}, {"measurement": "thermal stability z-score", "setting": "potassium arsenate", "result": 0.867}]}, {"target": "EEFSEC (UniProt P57772)", "values": [{"measurement": "thermal stability z-score", "setting": "lipoamide; [1]", "result": -0.771}, {"measurement": "thermal stability z-score", "setting": "lipoamide; arsenate co-treatment: none", "result": 0.715}, {"measurement": "thermal stability z-score", "setting": "potassium arsenate", "result": -0.884}]}, {"target": "CUL7 (UniProt Q14999)", "sequence (Q14999 whole entry)": "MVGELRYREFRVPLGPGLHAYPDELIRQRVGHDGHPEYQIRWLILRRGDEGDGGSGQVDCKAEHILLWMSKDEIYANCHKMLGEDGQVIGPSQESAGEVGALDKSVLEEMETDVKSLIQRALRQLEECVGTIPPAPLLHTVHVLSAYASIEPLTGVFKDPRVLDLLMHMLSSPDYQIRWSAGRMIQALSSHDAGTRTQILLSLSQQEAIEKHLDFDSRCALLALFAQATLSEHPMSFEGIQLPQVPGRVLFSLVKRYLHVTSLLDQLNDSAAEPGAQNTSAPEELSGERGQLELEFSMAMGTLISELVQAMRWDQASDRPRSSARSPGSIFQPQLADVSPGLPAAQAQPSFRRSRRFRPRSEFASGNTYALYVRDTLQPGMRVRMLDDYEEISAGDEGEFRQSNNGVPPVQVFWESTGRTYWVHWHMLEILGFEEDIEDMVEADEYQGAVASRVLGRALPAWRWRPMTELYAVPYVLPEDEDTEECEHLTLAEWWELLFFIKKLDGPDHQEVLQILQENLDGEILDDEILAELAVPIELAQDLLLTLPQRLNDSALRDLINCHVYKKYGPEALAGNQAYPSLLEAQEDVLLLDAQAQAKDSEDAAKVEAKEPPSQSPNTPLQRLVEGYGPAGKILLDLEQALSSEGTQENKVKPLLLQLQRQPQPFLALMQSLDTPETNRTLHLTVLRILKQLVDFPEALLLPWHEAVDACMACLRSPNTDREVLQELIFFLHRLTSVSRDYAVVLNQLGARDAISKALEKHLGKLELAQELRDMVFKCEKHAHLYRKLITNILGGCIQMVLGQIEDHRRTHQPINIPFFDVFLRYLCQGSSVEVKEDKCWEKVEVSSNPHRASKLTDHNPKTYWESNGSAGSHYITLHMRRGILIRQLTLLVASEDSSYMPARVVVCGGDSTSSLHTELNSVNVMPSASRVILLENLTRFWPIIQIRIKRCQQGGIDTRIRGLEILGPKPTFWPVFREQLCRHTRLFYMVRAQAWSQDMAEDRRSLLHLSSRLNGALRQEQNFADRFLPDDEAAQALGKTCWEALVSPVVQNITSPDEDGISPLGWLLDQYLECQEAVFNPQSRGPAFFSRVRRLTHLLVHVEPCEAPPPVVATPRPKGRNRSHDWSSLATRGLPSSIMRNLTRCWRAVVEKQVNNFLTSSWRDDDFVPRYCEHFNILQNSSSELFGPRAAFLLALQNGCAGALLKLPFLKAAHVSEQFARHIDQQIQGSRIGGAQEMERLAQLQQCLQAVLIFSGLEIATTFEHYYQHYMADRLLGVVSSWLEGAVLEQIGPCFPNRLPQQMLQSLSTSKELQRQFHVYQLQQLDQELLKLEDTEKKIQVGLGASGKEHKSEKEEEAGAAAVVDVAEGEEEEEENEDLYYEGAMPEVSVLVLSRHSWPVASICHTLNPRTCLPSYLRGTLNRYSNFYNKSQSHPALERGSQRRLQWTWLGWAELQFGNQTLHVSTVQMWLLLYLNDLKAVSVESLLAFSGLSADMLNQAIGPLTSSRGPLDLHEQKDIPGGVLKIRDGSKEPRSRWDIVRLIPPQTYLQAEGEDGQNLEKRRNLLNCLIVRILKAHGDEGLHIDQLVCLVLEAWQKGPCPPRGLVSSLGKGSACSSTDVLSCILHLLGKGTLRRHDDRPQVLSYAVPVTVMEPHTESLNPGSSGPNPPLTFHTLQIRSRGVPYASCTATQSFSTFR", "values": [{"measurement": "thermal stability z-score", "setting": "lipoamide; [1]", "result": 0.0636}, {"measurement": "thermal stability z-score", "setting": "lipoamide; arsenate co-treatment: none", "result": 0.0136}, {"measurement": "thermal stability z-score", "setting": "potassium arsenate", "result": -0.113}]}, {"target": "SNX3 (UniProt O60493)", "sequence (O60493 whole entry)": "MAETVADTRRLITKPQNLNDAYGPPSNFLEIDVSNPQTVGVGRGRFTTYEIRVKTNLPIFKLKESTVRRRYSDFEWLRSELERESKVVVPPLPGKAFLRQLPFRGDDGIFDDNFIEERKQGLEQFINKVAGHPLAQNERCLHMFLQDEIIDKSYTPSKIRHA", "values": [{"measurement": "thermal stability z-score", "setting": "lipoamide; [1]", "result": -0.62}, {"measurement": "thermal stability z-score", "setting": "lipoamide; arsenate co-treatment: none", "result": -0.231}, {"measurement": "thermal stability z-score", "setting": "potassium arsenate", "result": 0.0169}]}, {"target": "EXOC1 (UniProt Q9NV70)", "values": [{"measurement": "thermal stability z-score", "setting": "lipoamide; [1]", "result": -0.268}, {"measurement": "thermal stability z-score", "setting": "lipoamide; arsenate co-treatment: none", "result": 0.043}, {"measurement": "thermal stability z-score", "setting": "potassium arsenate", "result": 0.0191}]}, {"target": "SMARCC1 (UniProt Q92922)", "values": [{"measurement": "thermal stability z-score", "setting": "lipoamide; [1]", "result": 0.791}, {"measurement": "thermal stability z-score", "setting": "lipoamide; arsenate co-treatment: none", "result": 1.14}, {"measurement": "thermal stability z-score", "setting": "potassium arsenate", "result": -0.204}]}, {"target": "RPL28 (UniProt P46779)", "values": [{"measurement": "thermal stability z-score", "setting": "lipoamide; [1]", "result": 0.57}, {"measurement": "thermal stability z-score", "setting": "lipoamide; arsenate co-treatment: none", "result": 0.375}, {"measurement": "thermal stability z-score", "setting": "potassium arsenate", "result": -0.548}]}, {"target": "UBXN8 (UniProt O00124)", "sequence (O00124 whole entry)": "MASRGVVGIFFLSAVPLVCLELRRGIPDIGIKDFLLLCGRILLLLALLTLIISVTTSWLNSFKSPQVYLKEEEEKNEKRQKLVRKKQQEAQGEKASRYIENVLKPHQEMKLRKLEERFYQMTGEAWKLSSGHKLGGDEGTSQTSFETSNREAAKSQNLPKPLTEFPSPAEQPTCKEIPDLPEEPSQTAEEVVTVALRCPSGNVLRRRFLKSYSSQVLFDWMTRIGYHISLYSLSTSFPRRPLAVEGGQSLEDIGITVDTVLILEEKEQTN", "values": [{"measurement": "thermal stability z-score", "setting": "lipoamide; [1]", "result": -1.43}, {"measurement": "thermal stability z-score", "setting": "lipoamide; arsenate co-treatment: none", "result": -0.528}, {"measurement": "thermal stability z-score", "setting": "potassium arsenate", "result": -0.0404}]}, {"target": "DEGS1 (UniProt O15121)", "values": [{"measurement": "thermal stability z-score", "setting": "lipoamide; [1]", "result": -0.756}, {"measurement": "thermal stability z-score", "setting": "lipoamide; arsenate co-treatment: none", "result": -1.25}, {"measurement": "thermal stability z-score", "setting": "potassium arsenate", "result": 0.212}]}, {"target": "NFIA (UniProt Q12857)", "values": [{"measurement": "thermal stability z-score", "setting": "lipoamide; [1]", "result": -1.05}, {"measurement": "thermal stability z-score", "setting": "lipoamide; arsenate co-treatment: none", "result": -1.1}, {"measurement": "thermal stability z-score", "setting": "potassium arsenate", "result": -0.647}]}, {"target": "LAMTOR5 (UniProt O43504)", "values": [{"measurement": "thermal stability z-score", "setting": "lipoamide; [1]", "result": -0.306}, {"measurement": "thermal stability z-score", "setting": "lipoamide; arsenate co-treatment: none", "result": -0.405}, {"measurement": "thermal stability z-score", "setting": "potassium arsenate", "result": 0.0111}]}, {"target": "C20ORF27 (UniProt Q9GZN8)", "values": [{"measurement": "thermal stability z-score", "setting": "lipoamide; [1]", "result": 0.247}, {"measurement": "thermal stability z-score", "setting": "lipoamide; arsenate co-treatment: none", "result": 0.189}, {"measurement": "thermal stability z-score", "setting": "potassium arsenate", "result": -0.583}]}, {"target": "NSMCE2 (UniProt Q96MF7)", "sequence (Q96MF7 whole entry)": "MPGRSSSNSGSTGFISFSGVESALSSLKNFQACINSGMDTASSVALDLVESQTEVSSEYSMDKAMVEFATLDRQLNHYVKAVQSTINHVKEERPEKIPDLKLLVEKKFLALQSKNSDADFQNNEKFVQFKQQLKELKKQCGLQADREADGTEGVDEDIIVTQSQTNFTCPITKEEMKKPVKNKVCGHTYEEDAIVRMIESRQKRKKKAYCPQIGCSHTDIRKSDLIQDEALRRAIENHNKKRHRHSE", "values": [{"measurement": "thermal stability z-score", "setting": "lipoamide; [1]", "result": 0.278}, {"measurement": "thermal stability z-score", "setting": "lipoamide; arsenate co-treatment: none", "result": 0.339}, {"measurement": "thermal stability z-score", "setting": "potassium arsenate", "result": 0.541}]}, {"target": "HSPA5 (UniProt P11021)", "values": [{"measurement": "thermal stability z-score", "setting": "lipoamide; [1]", "result": -2.56}, {"measurement": "thermal stability z-score", "setting": "lipoamide; arsenate co-treatment: none", "result": -1.9}, {"measurement": "thermal stability z-score", "setting": "potassium arsenate", "result": 0.434}]}, {"target": "LGALS3BP (UniProt Q08380)", "sequence (Q08380 whole entry)": "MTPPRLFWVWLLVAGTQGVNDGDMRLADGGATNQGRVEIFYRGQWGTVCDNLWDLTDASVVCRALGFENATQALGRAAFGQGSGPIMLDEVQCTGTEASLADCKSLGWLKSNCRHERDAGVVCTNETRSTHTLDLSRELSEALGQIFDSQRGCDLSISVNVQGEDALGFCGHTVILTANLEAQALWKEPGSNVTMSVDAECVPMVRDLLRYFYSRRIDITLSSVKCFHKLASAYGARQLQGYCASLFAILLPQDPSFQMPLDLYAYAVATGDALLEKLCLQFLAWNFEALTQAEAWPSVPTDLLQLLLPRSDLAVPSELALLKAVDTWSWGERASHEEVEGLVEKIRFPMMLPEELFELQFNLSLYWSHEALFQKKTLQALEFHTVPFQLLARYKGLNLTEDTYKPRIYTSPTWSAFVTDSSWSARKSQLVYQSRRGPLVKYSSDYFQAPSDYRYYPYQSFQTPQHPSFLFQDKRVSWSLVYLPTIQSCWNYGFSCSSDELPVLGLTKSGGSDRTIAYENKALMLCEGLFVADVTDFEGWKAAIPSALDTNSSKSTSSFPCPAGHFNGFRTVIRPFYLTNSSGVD", "values": [{"measurement": "thermal stability z-score", "setting": "lipoamide; [1]", "result": -2.58}, {"measurement": "thermal stability z-score", "setting": "lipoamide; arsenate co-treatment: none", "result": -2.13}, {"measurement": "thermal stability z-score", "setting": "potassium arsenate", "result": 0.946}]}, {"target": "GBAS (UniProt O75323)", "sequence (O75323 whole entry)": "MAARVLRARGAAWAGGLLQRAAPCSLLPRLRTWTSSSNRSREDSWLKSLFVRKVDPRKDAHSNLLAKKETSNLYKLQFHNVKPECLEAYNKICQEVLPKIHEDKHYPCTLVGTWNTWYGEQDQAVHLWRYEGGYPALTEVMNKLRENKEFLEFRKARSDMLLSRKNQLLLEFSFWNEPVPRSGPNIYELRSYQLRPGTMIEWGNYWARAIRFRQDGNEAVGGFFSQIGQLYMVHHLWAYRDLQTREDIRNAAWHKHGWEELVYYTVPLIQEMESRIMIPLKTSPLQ", "values": [{"measurement": "thermal stability z-score", "setting": "lipoamide; [1]", "result": 0.0991}, {"measurement": "thermal stability z-score", "setting": "lipoamide; arsenate co-treatment: none", "result": 0.0331}, {"measurement": "thermal stability z-score", "setting": "potassium arsenate", "result": -0.187}]}, {"target": "NOP10 (UniProt Q9NPE3)", "values": [{"measurement": "thermal stability z-score", "setting": "lipoamide; [1]", "result": 0.405}, {"measurement": "thermal stability z-score", "setting": "lipoamide; arsenate co-treatment: none", "result": -0.0767}, {"measurement": "thermal stability z-score", "setting": "potassium arsenate", "result": 0.522}]}, {"target": "COX5B (UniProt P10606)", "values": [{"measurement": "thermal stability z-score", "setting": "lipoamide; [1]", "result": 1.26}, {"measurement": "thermal stability z-score", "setting": "lipoamide; arsenate co-treatment: none", "result": 1.21}, {"measurement": "thermal stability z-score", "setting": "potassium arsenate", "result": -0.926}]}, {"target": "COQ9 (UniProt O75208)", "sequence (O75208 whole entry)": "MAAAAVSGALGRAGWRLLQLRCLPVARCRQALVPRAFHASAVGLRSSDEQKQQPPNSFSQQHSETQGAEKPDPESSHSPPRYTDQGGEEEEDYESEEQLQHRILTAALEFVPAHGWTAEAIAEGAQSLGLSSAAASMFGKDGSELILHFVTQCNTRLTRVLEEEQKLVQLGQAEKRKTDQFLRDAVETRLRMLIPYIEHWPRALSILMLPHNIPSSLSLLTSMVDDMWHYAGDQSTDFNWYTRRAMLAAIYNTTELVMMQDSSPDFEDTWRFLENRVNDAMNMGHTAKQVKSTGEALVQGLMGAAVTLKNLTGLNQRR", "values": [{"measurement": "thermal stability z-score", "setting": "lipoamide; [1]", "result": -0.364}, {"measurement": "thermal stability z-score", "setting": "lipoamide; arsenate co-treatment: none", "result": -0.531}, {"measurement": "thermal stability z-score", "setting": "potassium arsenate", "result": 1.61}]}, {"target": "AHNAK2 (UniProt Q8IVF2)", "values": [{"measurement": "thermal stability z-score", "setting": "lipoamide; [1]", "result": 0.924}, {"measurement": "thermal stability z-score", "setting": "lipoamide; arsenate co-treatment: none", "result": 0.899}, {"measurement": "thermal stability z-score", "setting": "potassium arsenate", "result": 1.42}]}, {"target": "CD109 (UniProt Q6YHK3)", "values": [{"measurement": "thermal stability z-score", "setting": "lipoamide; [1]", "result": -0.877}, {"measurement": "thermal stability z-score", "setting": "lipoamide; arsenate co-treatment: none", "result": -1.01}, {"measurement": "thermal stability z-score", "setting": "potassium arsenate", "result": 1.06}]}, {"target": "SDF4 (UniProt Q9BRK5)", "values": [{"measurement": "thermal stability z-score", "setting": "lipoamide; [1]", "result": -1.8}, {"measurement": "thermal stability z-score", "setting": "lipoamide; arsenate co-treatment: none", "result": -1.61}, {"measurement": "thermal stability z-score", "setting": "potassium arsenate", "result": 0.389}]}, {"target": "POLR3E (UniProt Q9NVU0)", "values": [{"measurement": "thermal stability z-score", "setting": "lipoamide; [1]", "result": 0.0246}, {"measurement": "thermal stability z-score", "setting": "lipoamide; arsenate co-treatment: none", "result": 0.108}, {"measurement": "thermal stability z-score", "setting": "potassium arsenate", "result": -0.126}]}, {"target": "DMAP1 (UniProt Q9NPF5)", "sequence (Q9NPF5 whole entry)": "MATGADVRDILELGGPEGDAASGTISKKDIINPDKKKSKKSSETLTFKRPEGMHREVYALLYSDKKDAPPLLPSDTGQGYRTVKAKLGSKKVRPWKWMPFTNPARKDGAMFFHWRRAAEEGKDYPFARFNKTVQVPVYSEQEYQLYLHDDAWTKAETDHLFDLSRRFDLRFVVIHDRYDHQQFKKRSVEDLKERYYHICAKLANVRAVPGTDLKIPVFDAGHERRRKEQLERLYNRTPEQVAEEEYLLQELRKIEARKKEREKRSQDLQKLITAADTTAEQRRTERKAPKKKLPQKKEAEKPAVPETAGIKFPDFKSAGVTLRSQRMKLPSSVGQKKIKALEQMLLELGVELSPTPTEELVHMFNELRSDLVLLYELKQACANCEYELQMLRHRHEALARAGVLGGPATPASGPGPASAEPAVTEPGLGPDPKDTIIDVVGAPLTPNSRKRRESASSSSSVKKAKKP", "values": [{"measurement": "thermal stability z-score", "setting": "lipoamide; [1]", "result": -0.551}, {"measurement": "thermal stability z-score", "setting": "lipoamide; arsenate co-treatment: none", "result": -0.38}, {"measurement": "thermal stability z-score", "setting": "potassium arsenate", "result": -0.644}]}, {"target": "MRPL43 (UniProt Q8N983)", "values": [{"measurement": "thermal stability z-score", "setting": "lipoamide; [1]", "result": -0.191}, {"measurement": "thermal stability z-score", "setting": "lipoamide; arsenate co-treatment: none", "result": 0.245}, {"measurement": "thermal stability z-score", "setting": "potassium arsenate", "result": 0.166}]}, {"target": "SMYD4 (UniProt Q8IYR2)", "values": [{"measurement": "thermal stability z-score", "setting": "lipoamide; [1]", "result": -0.0691}, {"measurement": "thermal stability z-score", "setting": "lipoamide; arsenate co-treatment: none", "result": -0.00905}, {"measurement": "thermal stability z-score", "setting": "potassium arsenate", "result": -0.0713}]}]}
